Measured values from ChEMBL document CHEMBL4270599, “Synthesis of a 3'-C-ethynyl-β-d-ribofuranose purine nucleoside library: Discovery of C7-deazapurine analogs as potent antiproliferative nucleosides” (Eur J Med Chem, 2018).

Experiments:
Format in all cases: functional
U-251 [1] = test: Growth inhibition of human U251 cells assessed as cell growth at 10^-6 M incubated for 48 hrs by sulforhodamine B assay relative to control; conditions: U-251, 48 h, read-out: Activity
COLO 205 [2] = test: Growth inhibition of human COLO205 cells assessed as cell growth at 10^-5 M incubated for 48 hrs by sulforhodamine B assay relative to control; conditions: COLO 205, 48 h, read-out: Activity
ACHN [3] = test: Growth inhibition of human ACHN cells assessed as cell growth at 10^-7 M incubated for 48 hrs by sulforhodamine B assay relative to control; conditions: read-out: Activity
ACHN [4] = test: Growth inhibition of human ACHN cells assessed as cell growth at 10^-6 M incubated for 48 hrs by sulforhodamine B assay relative to control; conditions: read-out: Activity
U-251 [5] = test: Growth inhibition of human U251 cells assessed as cell growth at 10^-7 M incubated for 48 hrs by sulforhodamine B assay relative to control; conditions: U-251, 48 h, read-out: Activity
DU-145 = test: Growth inhibition of human DU145 cells assessed as cell growth at 10^-5 M incubated for 48 hrs by sulforhodamine B assay relative to control; conditions: DU-145, 48 h, read-out: Activity
Hs-578T = test: Growth inhibition of human Hs 578T cells assessed as cell growth at 10^-6 M incubated for 48 hrs by sulforhodamine B assay relative to control; conditions: read-out: Activity
NCI-H460 = test: Growth inhibition of human NCI-H460 cells assessed as cell growth at 10^-6 M incubated for 48 hrs by sulforhodamine B assay relative to control; conditions: NCI-H460, 48 h, read-out: Activity
A549 = test: Cytotoxicity against human A549 cells after 48 hrs by SRB assay; conditions: A549, 48 h; for GI50: read-out: GI50
OVCAR-5 [6] = test: Growth inhibition of human OVCAR5 cells assessed as cell growth at 10^-7 M incubated for 48 hrs by sulforhodamine B assay relative to control; conditions: OVCAR-5, 48 h, read-out: Activity
RPMI-8226 = test: Growth inhibition of human RPMI8226 cells assessed as cell growth at 10^-7 M incubated for 48 hrs by sulforhodamine B assay relative to control; conditions: RPMI-8226, 48 h, read-out: Activity
SK-MEL-28 = test: Cytotoxicity against human SK-MEL-28 cells after 48 hrs by SRB assay; conditions: SK-MEL-28, 48 h; for GI50: read-out: GI50; for TGI: read-out: TGI; for CC50: read-out: pLC50 (the source's name) (converted)
MOLT-4 = test: Growth inhibition of human MOLT4 cells assessed as cell growth at 10^-7 M incubated for 48 hrs by sulforhodamine B assay relative to control; conditions: MOLT-4, 48 h, read-out: Activity
Malme-3M = test: Cytotoxicity against human MALME-3M cells after 48 hrs by SRB assay; conditions: for GI50: read-out: GI50; for CC50: read-out: LC50 (the source's name); for TGI: read-out: TGI
SK-MEL-5 = test: Growth inhibition of human SK-MEL-5 cells assessed as cell growth at 10^-8 M incubated for 48 hrs by sulforhodamine B assay relative to control; conditions: SK-MEL-5, 48 h, read-out: Activity
OVCAR-4 = test: Growth inhibition of human OVCAR4 cells assessed as cell growth at 10^-8 M incubated for 48 hrs by sulforhodamine B assay relative to control; conditions: OVCAR-4, 48 h, read-out: Activity
K562 [7] = test: Growth inhibition of human K562 cells assessed as cell growth at 10^-8 M incubated for 48 hrs by sulforhodamine B assay relative to control; conditions: K562, 48 h, read-out: Activity
MDA-MB-468 = test: Cytotoxicity against human MDA-MB-468 cells after 48 hrs by SRB assay; conditions: MDA-MB-468, 48 h; for GI50: read-out: GI50; for TGI: read-out: TGI
SNB-19 = test: Growth inhibition of human SNB19 cells assessed as cell growth at 10^-6 M incubated for 48 hrs by sulforhodamine B assay relative to control; conditions: SNB-19, 48 h, read-out: Activity
NCI-H23 = test: Cytotoxicity against human NCI-H23 cells after 48 hrs by SRB assay; conditions: NCI-H23, 48 h; for GI50: read-out: GI50; for TGI: read-out: TGI
SR = test: Growth inhibition of human SR cells assessed as cell growth at 10^-6 M incubated for 48 hrs by sulforhodamine B assay relative to control; conditions: read-out: Activity
COLO 205 [8] = test: Growth inhibition of human COLO205 cells assessed as cell growth at 10^-8 M incubated for 48 hrs by sulforhodamine B assay relative to control; conditions: COLO 205, 48 h, read-out: Activity
OVCAR-5 [9] = test: Growth inhibition of human OVCAR5 cells assessed as cell growth at 10^-4 M incubated for 48 hrs by sulforhodamine B assay relative to control; conditions: OVCAR-5, 48 h, read-out: Activity
HOP-62 = test: Cytotoxicity against human HOP62 cells after 48 hrs by SRB assay; conditions: HOP-62, 48 h; for GI50: read-out: GI50; for TGI: read-out: TGI
K562 [10] = test: Growth inhibition of human K562 cells assessed as cell growth at 10^-7 M incubated for 48 hrs by sulforhodamine B assay relative to control; conditions: K562, 48 h, read-out: Activity
HCC 2998 = test: Cytotoxicity against human HCC2998 cells after 48 hrs by SRB assay; conditions: HCC 2998, 48 h; for GI50: read-out: GI50; for CC50: read-out: LC50 (the source's name); for TGI: read-out: TGI
NCI-H322M = test: Growth inhibition of human NCI-H322M cells assessed as cell growth at 10^-7 M incubated for 48 hrs by sulforhodamine B assay relative to control; conditions: read-out: Activity
SF-268 = test: Growth inhibition of human SF268 cells assessed as cell growth at 10^-5 M incubated for 48 hrs by sulforhodamine B assay relative to control; conditions: SF-268, 48 h, read-out: Activity
OVCAR-3 = test: Growth inhibition of human OVCAR3 cells assessed as cell growth at 10^-8 M incubated for 48 hrs by sulforhodamine B assay relative to control; conditions: OVCAR-3, 48 h, read-out: Activity
LOX IMVI = test: Growth inhibition of human LOXIMVI cells assessed as cell growth at 10^-7 M incubated for 48 hrs by sulforhodamine B assay relative to control; conditions: read-out: Activity
MDA-MB-231 = test: Cytotoxicity against human MDA-MB-231 cells after 48 hrs by SRB assay; conditions: MDA-MB-231, 48 h; for GI50: read-out: GI50; for CC50: read-out: LC50 (the source's name)
[11] = read-out: LC50 (the source's name)
[12] = read-out: pLC50 (the source's name) (converted)

C#C[C@@]1(O)[C@@H](CO)O[C@@H](n2cc(I)c3c(N)ncnc32)[C@@H]1O
growth at 1 µM (U-251 [1]): 6 to 9%
growth at 10 µM (COLO 205 [2]): -62%
growth at 0.1 µM (ACHN [3]): 72%
growth at 1 µM (ACHN [4]): 28%
growth at 0.1 µM (U-251 [5]): 40 to 45%
growth at 10 µM (DU-145): 8 to 11%
growth at 1 µM (Hs-578T): 38 to 53%
growth at 1 µM (NCI-H460): 6 to 9%
GI50 (A549): 297 to 589 nM
CC50 (A549; [11]): > 100000 nM
TGI (A549; read-out: TGI): > 100000 nM
TGI (A549; read-out: pTGI (converted)): > 100000 nM
growth at 0.1 µM (OVCAR-5 [6]): 67 to 75%
growth at 0.1 µM (RPMI-8226): 71 to 90%
GI50 (SK-MEL-28): 1560 to 2460 nM
TGI (SK-MEL-28): 9270 to 14000 nM
CC50 (SK-MEL-28): > 100000 nM
growth at 0.1 µM (MOLT-4): 39 to 52%
GI50 (Malme-3M): 525 to 1300 nM
CC50 (Malme-3M): > 100000 nM
TGI (Malme-3M): 2760 to 4160 nM
growth at 0.01 µM (SK-MEL-5): 87 to 94%
growth at 0.01 µM (OVCAR-4): 90 to 104%
growth at 0.01 µM (K562 [7]): 95 to 102%
GI50 (MDA-MB-468): 147 to 158 nM
CC50 (MDA-MB-468; [11]): 5510 to 5650 nM
TGI (MDA-MB-468): 421 to 746 nM
growth at 1 µM (SNB-19): 8 to 26%
GI50 (NCI-H23): 271 to 395 nM
CC50 (NCI-H23; [11]): > 100000 nM
TGI (NCI-H23): 4310 to 9720 nM
growth at 1 µM (SR): 21 to 24%
growth at 0.01 µM (COLO 205 [8]): 79 to 98%
growth at 100 µM (OVCAR-5 [9]): 2 to 5%
GI50 (HOP-62): 367 to 1520 nM
CC50 (HOP-62; [11]): > 100000 nM
TGI (HOP-62): 6280 to 12000 nM
growth at 0.1 µM (K562 [10]): 35 to 41%
GI50 (HCC 2998): 221 to 267 nM
CC50 (HCC 2998): > 100000 nM
TGI (HCC 2998): 2600 to 3470 nM
growth at 0.1 µM (NCI-H322M): 69 to 82%
growth at 10 µM (SF-268): 7%
growth at 0.01 µM (OVCAR-3): 91 to 98%
growth at 0.1 µM (LOX IMVI): 27 to 46%
GI50 (MDA-MB-231): 168 to 204 nM
CC50 (MDA-MB-231): > 100000 nM
TGI (MDA-MB-231; read-out: TGI): > 100000 nM
TGI (MDA-MB-231; read-out: pTGI (converted)): > 100000 nM

C#C[C@@]1(O)[C@@H](CO)O[C@@H](n2cc(Cl)c3c(N)ncnc32)[C@@H]1O
growth at 0.1 µM (ACHN [3]): 72%
growth at 1 µM (ACHN [4]): 7%
growth at 10 µM (DU-145): 1 to 2%
growth at 1 µM (Hs-578T): 25 to 77%
GI50 (A549): 138 to 237 nM
CC50 (A549; [12]): > 100000 nM
growth at 0.1 µM (OVCAR-5 [6]): 72 to 102%
growth at 0.1 µM (RPMI-8226): 64 to 65%
GI50 (SK-MEL-28): 469 to 706 nM
TGI (SK-MEL-28): 57100 to 89400 nM
CC50 (SK-MEL-28): > 100000 nM
growth at 0.1 µM (MOLT-4): 62 to 67%
GI50 (Malme-3M): 223 to 262 nM
CC50 (Malme-3M): > 100000 nM
TGI (Malme-3M): 858 to 11800 nM
growth at 0.01 µM (SK-MEL-5): 90 to 97%
growth at 0.01 µM (OVCAR-4): 89 to 90%
growth at 0.01 µM (K562 [7]): 93 to 97%
GI50 (MDA-MB-468): 180 to 243 nM
TGI (MDA-MB-468): 451 to 751 nM
CC50 (MDA-MB-468; [12]): 2090 nM
GI50 (NCI-H23): 173 to 213 nM
TGI (NCI-H23): 716 to 1280 nM
CC50 (NCI-H23; [12]): > 100000 nM
growth at 1 µM (SR): 5 to 6%
growth at 0.01 µM (COLO 205 [8]): 93 to 96%
GI50 (HOP-62): 216 to 299 nM
TGI (HOP-62): 1160 to 3350 nM
CC50 (HOP-62; [12]): > 100000 nM
growth at 0.1 µM (K562 [10]): 45 to 55%
GI50 (HCC 2998): 182 to 191 nM
CC50 (HCC 2998): > 100000 nM
TGI (HCC 2998): 501 to 565 nM
growth at 0.1 µM (NCI-H322M): 67 to 80%
growth at 10 µM (SF-268): 2 to 7%
growth at 0.01 µM (OVCAR-3): 97 to 101%
growth at 0.1 µM (LOX IMVI): 34 to 47%
GI50 (MDA-MB-231): 148 to 193 nM
CC50 (MDA-MB-231): > 100000 nM
TGI (MDA-MB-231; read-out: TGI): 893 to 1010 nM
